According to patent US20100004469A1, “ANTIMICROBIAL AGENTS AND MICROBICIDAL AGENTS” (KABUSHIKI KAISHA TOYOTA JIDOSHOKKI, priority 2006, published 2010):

Key:
Assay type in all cases: cell-based
[1] = system: Escherichia coli (NBRC 3972); test: Test for antimicrobial activity with neutralization, viable cell count (Example 2); conditions: 20% aqueous solution, neutralized
Experimental: (§1) After said strains were cultured in SCD agar medium at 35±2° C. for 18 to 24 hours, inocula were prepared by suspending the stains in sterile purified water and adjusting the turbidity so as to correspond with No. 1 MacFarland. Using agar plate, the concentrations of the inocula were measured according to the agar plate mixed dilution method (Table 3). 3 mL of each of 20% aqueous solution of the test compound, a stock solution of a comparative compound and sterile water, (control) was prepared (n=1). 0.03 mL of said inocula was inoculated into each of the test solutions at a room temperature. Immediately after, 15 minutes after and 180 minutes after the inoculations, neutralization was performed under the following conditions. 0.5 mL of the test solution was added to 4.5 mL of sterile sodium hydrate solution at the concentration of 0.25 mol/L (sodium hydrate; manufactured by Wako Pure Chemical Industries, Ltd.), and mixed. Then, 45 mL of a sterile phosphate buffer (Pro-media MV2-1000, manufactured by ELMEX) was immediately added and mixed. 0.5 mL of the test solution was added to 4.5 mL of sterile sodium hydrate solution at the concentration of 2.0 mol/L, and mixed. Then, 45 mL of a sterile phosphate buffer was immediately added and mixed. A ten-fold dilution series of each of the neutralization solution was prepared. Then, the number of the viable cells therein was measured and it was converted to the number of viable cells per 1 mL of the test solutions or control. The number of viable cell was measured according to “Viable cell count; the agar plate mixed dilution method in the Japanese Pharmacopoeia, 14th revised edition”.

[2] = system: Salmonella Enteritidis (NBRC 3313); test: as above; conditions: 20% aqueous solution, neutralized
Experimental: as §1

[3] = system: Staphylococcus aureus subsp. aureus (NBRC 13276); test: as above; conditions: 20% aqueous solution, neutralized
Experimental: as §1

[4] = system: Escherichia coli (NBRC 3972); test: Test for antimicrobial activity, viable cell count (Example 1); conditions: room temperature
Experimental: (§2) After said strains were cultured in SCD agar medium at 35±2° C. for 18 to 24 hours, inocula were prepared by suspending the cultured stains in sterile purified water and adjusting the turbidity so as to correspond with No. 1 MacFarland. Using agar plates, the concentrations of the inocula were measured according to the agar plate mixed dilution method (Table 1). 3 mL of each of the 10%, 1.0% and 0.1% aqueous solutions of the test compound, and of sterile purified water (control) were prepared (n=1). 0.03 mL of said inocula was inoculated into each of the test solutions at room temperature. Immediately after, 15 minutes after, and 180 minutes after the inoculations, 0.5 mL of each of the test solutions was added to 49.5 mL of a sterile phosphate buffer (Pro-media MV2-1000, manufactured by ELMEX), and mixed. A ten fold dilution series of each of the mixtures was constructed. Then, the number of the viable cells therein were measured, and then it was converted to the number of viable cells per 1 mL of the test solutions or control. The number of viable cell was measured according to “Viable cell count; the agar plate mixed dilution method in the Japanese Pharmacopoeia, 14th revised edition”.

[5] = system: Salmonella Enteritidis (NBRC 3313); test: as above; conditions: room temperature
Experimental: as §2

[6] = system: Staphylococcus aureus subsp. aureus (NBRC 13276); test: as above; conditions: room temperature
Experimental: as §2

O=C(O)c1cc(C(=O)O)oc(=O)c1 [test compound, 2H-pyran-2-on-4,6-dicarbonic acid]
number of viable cells, Measured 15 min. after inoculation ([1]; 15 min. after inoculation): <100 cfu/mL | number of viable cells, Measured 180 min. after inoculation ([1]; 180 min. after inoculation): <100 cfu/mL | number of viable cells, Measured immediately after inoculation ([1]; immediately after inoculation): <100 cfu/mL | number of viable cells, Measured 15 min. after inoculation ([2]; 15 min. after inoculation): <100 cfu/mL | number of viable cells, Measured 180 min. after inoculation ([2]; 180 min. after inoculation): <100 cfu/mL | number of viable cells, Measured immediately after inoculation ([2]; immediately after inoculation): <100 cfu/mL | number of viable cells, Measured 15 min. after inoculation ([3]; 15 min. after inoculation): <100 cfu/mL | number of viable cells, Measured 180 min. after inoculation ([3]; 180 min. after inoculation): <100 cfu/mL | number of viable cells, Measured immediately after inoculation ([3]; immediately after inoculation): <100 cfu/mL | number of viable cells, Measured 15 min. after inoculation ([4]; 0.1% aqueous solution): <100 cfu/mL | number of viable cells, Measured 180 min. after inoculation ([4]; 0.1% aqueous solution): <100 cfu/mL | number of viable cells, Measured immediately after inoculation ([4]; 0.1% aqueous solution): 10,000 cfu/mL | number of viable cells, Measured 15 min. after inoculation ([4]; 1.0% aqueous solution): <100 cfu/mL | number of viable cells, Measured 180 min. after inoculation ([4]; 1.0% aqueous solution): <100 cfu/mL | number of viable cells, Measured immediately after inoculation ([4]; 1.0% aqueous solution): <100 cfu/mL | number of viable cells, Measured 15 min. after inoculation ([4]; 10% aqueous solution): <100 cfu/mL | number of viable cells, Measured 180 min. after inoculation ([4]; 10% aqueous solution): <100 cfu/mL | number of viable cells, Measured immediately after inoculation ([4]; 10% aqueous solution): <100 cfu/mL | number of viable cells, Measured 15 min. after inoculation ([5]; 0.1% aqueous solution): <100 cfu/mL | number of viable cells, Measured 180 min. after inoculation ([5]; 0.1% aqueous solution): <100 cfu/mL | number of viable cells, Measured immediately after inoculation ([5]; 0.1% aqueous solution): 12,000 cfu/mL | number of viable cells, Measured 15 min. after inoculation ([5]; 1.0% aqueous solution): <100 cfu/mL | number of viable cells, Measured 180 min. after inoculation ([5]; 1.0% aqueous solution): <100 cfu/mL | number of viable cells, Measured immediately after inoculation ([5]; 1.0% aqueous solution): <100 cfu/mL | number of viable cells, Measured 15 min. after inoculation ([5]; 10% aqueous solution): <100 cfu/mL | number of viable cells, Measured 180 min. after inoculation ([5]; 10% aqueous solution): <100 cfu/mL | number of viable cells, Measured immediately after inoculation ([5]; 10% aqueous solution): <100 cfu/mL | number of viable cells, Measured 15 min. after inoculation ([6]; 0.1% aqueous solution): <100 cfu/mL | number of viable cells, Measured 180 min. after inoculation ([6]; 0.1% aqueous solution): <100 cfu/mL | number of viable cells, Measured immediately after inoculation ([6]; 0.1% aqueous solution): 11,000 cfu/mL | number of viable cells, Measured 15 min. after inoculation ([6]; 1.0% aqueous solution): <100 cfu/mL | number of viable cells, Measured 180 min. after inoculation ([6]; 1.0% aqueous solution): <100 cfu/mL | number of viable cells, Measured immediately after inoculation ([6]; 1.0% aqueous solution): 5,000 cfu/mL | number of viable cells, Measured 15 min. after inoculation ([6]; 10% aqueous solution): <100 cfu/mL | number of viable cells, Measured 180 min. after inoculation ([6]; 10% aqueous solution): <100 cfu/mL | number of viable cells, Measured immediately after inoculation ([6]; 10% aqueous solution): <100 cfu/mL
